The target in the test is T1, BRM (Homo sapiens, UniProt P51531).
T1 construct: In-Cell Western Screen of BRM Degradation in SW1573 Cells; endogenous in cells; host or cells: SW1573
Kind of test: In-cell Western screen of BRM degradation in SW1573 cells (Dmax and DC50). In kind it is cell-based. Summed up: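 Near-infrared imaging on a LI-COR Odyssey (800 and 680 nm channels) quantifies BRM remaining in fixed SW1573 cells. Cells are dosed for 18-20 h at 0.1% final DMSO, and degradation is expressed as Dmax and DC50.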

Where [1] appears, read: BRM degradation, SW1573 cells, read-out: DC50.
[2] abbreviates: BRM degradation, SW1573 cells, when tested at the top concentration of between 0.3 and 10 μM, read-out: Dmax (%) (% degraded).
Where [3] appears, read: BRM degradation, SW1573 cells, tested at the top concentration of between 0.3 and 10 μM, read-out: Dmax (%) (% degraded).

Read-outs that look alike come from different tables or passages of the source.

One may read the DC50 as the concentration at which degradation of the target reaches its halfway point. The term Dmax denotes the largest share of the target that was removed.

T1 sequence (P51531 whole entry): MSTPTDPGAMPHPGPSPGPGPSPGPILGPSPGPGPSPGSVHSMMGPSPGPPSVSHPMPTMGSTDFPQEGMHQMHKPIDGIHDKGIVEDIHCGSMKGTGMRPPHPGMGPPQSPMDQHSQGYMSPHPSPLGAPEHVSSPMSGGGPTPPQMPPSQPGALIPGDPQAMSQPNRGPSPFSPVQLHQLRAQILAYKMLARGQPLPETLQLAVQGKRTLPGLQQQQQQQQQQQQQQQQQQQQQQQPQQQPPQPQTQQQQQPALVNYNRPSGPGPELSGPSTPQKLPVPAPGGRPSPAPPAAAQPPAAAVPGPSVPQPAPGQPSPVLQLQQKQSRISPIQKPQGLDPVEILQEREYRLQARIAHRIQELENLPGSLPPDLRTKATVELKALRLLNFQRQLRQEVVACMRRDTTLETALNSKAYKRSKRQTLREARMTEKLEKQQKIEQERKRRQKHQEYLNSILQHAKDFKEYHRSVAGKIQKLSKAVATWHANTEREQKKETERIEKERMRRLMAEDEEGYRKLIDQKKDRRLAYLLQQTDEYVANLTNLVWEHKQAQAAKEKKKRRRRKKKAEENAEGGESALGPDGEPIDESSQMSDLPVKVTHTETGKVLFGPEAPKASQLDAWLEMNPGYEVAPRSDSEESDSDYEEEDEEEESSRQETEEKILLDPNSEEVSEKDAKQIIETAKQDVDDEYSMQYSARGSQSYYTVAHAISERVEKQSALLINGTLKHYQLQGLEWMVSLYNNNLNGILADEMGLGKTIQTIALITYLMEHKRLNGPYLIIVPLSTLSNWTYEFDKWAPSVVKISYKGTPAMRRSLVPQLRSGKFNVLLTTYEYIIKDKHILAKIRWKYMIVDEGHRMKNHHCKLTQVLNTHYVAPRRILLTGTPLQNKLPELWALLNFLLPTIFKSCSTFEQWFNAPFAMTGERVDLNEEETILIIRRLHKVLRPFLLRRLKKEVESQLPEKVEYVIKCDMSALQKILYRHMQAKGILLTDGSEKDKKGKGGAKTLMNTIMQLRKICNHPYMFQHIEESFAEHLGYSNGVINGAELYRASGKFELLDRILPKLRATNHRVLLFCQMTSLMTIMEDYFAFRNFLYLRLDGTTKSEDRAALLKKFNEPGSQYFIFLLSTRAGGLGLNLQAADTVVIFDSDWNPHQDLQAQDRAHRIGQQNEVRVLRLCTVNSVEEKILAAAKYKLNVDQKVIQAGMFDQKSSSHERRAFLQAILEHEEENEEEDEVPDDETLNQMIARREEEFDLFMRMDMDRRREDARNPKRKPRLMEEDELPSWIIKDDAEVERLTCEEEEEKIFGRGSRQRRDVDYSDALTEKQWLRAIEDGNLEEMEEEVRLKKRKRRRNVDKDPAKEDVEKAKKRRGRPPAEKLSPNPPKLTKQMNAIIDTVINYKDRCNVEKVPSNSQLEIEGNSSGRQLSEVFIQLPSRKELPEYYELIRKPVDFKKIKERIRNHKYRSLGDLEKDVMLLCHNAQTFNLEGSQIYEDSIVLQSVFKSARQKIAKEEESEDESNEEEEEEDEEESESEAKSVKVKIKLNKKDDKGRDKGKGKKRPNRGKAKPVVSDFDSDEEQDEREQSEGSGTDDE

Regarding `Cc1ncsc1-c1ccc([C@H](C)NC(=O)[C@@H]2C[C@@H](O)CN2C(=O)[C@@H](c2cc(N3CCC(CN4CCC(O[C@H]5C[C@H](Oc6cc(/C=C/c7cc(-c8ccccc8O)nnc7N)ccn6)C5)CC4)CC3)no2)C(C)C)cc1` [compound 626, (2S,4R)-1-((R)-2-(3-(4-((4-((1r,3r)-3-((4-((E)-2-(3-amino-6-(2-hydroxyphenyl)pyridazin-4-yl)vinyl)pyridin-2-yl)oxy)cyclobutoxy)piperidin-1-yl)methyl)piperidin-1-yl)isoxazol-5-yl)-3-methylbutanoyl)-4-hydroxy-N-((S)-1-(4-(4-methylthiazol-5-yl)phenyl)ethyl)pyrrolidine-2-carboxamide], the DC50 under setting [1] is < 2.5 nM. Moreover, the Dmax (BRM degradation, SW1573 cells, read-out: Dmax (% degraded)) is > 75%.

In the case of `Cc1ncn(C)c1-c1ccc([C@H](C)NC(=O)[C@@H]2C[C@@H](O)CN2C(=O)[C@H](c2cc(OCCN3CCC(O[C@H]4C[C@H](Oc5cc(N6C7CCC6CN(c6cc(-c8ccccc8O)nnc6N)C7)ccn5)C4)CC3)no2)C(C)C)cc1` [compound 365, (2S,4R)-1-((2S)-2-(3-(2-(4-((1r,3S)-3-((4-(3-(3-amino-6-(2-hydroxyphenyl)pyridazin-4-yl)-3,8-diazabicyclo[3.2.1]octan-8-yl)pyridin-2-yl)oxy)cyclobutoxy)piperidin-1-yl)ethoxy)isoxazol-5-yl)-3-methylbutanoyl)-N-((S)-1-(4-(1,4-dimethyl-1H-imidazol-5-yl)phenyl)ethyl)-4-hydroxypyrrolidine-2-carboxamide], the DC50 (target protein degradation, read-out: BRM DC50) is > 30 nM.

With `Cc1ncsc1-c1ccc([C@H](C)NC(=O)[C@@H]2C[C@@H](O)CN2C(=O)[C@H](c2cc(OCCCc3ccc(C(C)n4cc(-c5cc(-c6ccccc6O)nnc5N)cn4)cc3)no2)C(C)C)cc1` (stereo partly drawn) [compound 59, (2S,4R)-1-((2S)-2-(3-(3-(4-(1-(4-(3-amino-6-(2-hydroxyphenyl)pyridazin-4-yl)-1H-pyrazol-1-yl)ethyl)phenyl)propoxy)isoxazol-5-yl)-3-methylbutanoyl)-4-hydroxy-N-((S)-1-(4-(4-methylthiazol-5-yl)phenyl)ethyl)pyrrolidine-2-carboxamide], under setting [1], the DC50 is > 30 nM. For the same compound, under setting [2], the Dmax is > 75%.

Regarding `Cc1ncsc1-c1ccc([C@H](C)NC(=O)[C@@H]2C[C@@H](O)CN2C(=O)[C@@H](NC(=O)CN2CCC(CN3CCC(OC4CC(Oc5cc(N6C7CC[C@@H]6CN(c6cc(-c8ccccc8O)nnc6N)C7)ccn5)C4)CC3)CC2)C(C)(C)C)cc1` (stereo partly drawn) [compound 512, (2S,4R)-1-((2S)-2-(2-(4-((4-((1r,3r)-3-((4-(3-(3-amino-6-(2-hydroxyphenyl)pyridazin-4-yl)-3,8-diazabicyclo[3.2.1]octan-8-yl)pyridin-2-yl)oxy)cyclobutoxy)piperidin-1-yl)methyl)piperidin-1-yl)acetamido)-3,3-dimethylbutanoyl)-4-hydroxy-N-((S)-1-(4-(4-methylthiazol-5-yl)phenyl)ethyl)pyrrolidine-2-carboxamide], for the setting “% degraded, when tested at the top concentration of between 0.3 and 10 μM”, the “BRM Dmax (%)” value is “A (A > 75)”. Also, the DC50 (BRM degradation, read-out: BRM DC50) was < 2.5 nM.

For `CC(C)[C@H](C(=O)N1C[C@H](O)C[C@H]1C(=O)N[C@@H](C)c1ccc(C2CC2(F)F)cc1)c1cc(OCCN2CCC(O[C@H]3C[C@H](Oc4cc(N5C6CCC5CN(c5cc(-c7ccccc7O)nnc5N)C6)ccn4)C3)CC2)no1` (stereo partly drawn) [compound 438, (2S,4R)-1-((2S)-2-(3-(2-(4-((1r,3S)-3-((4-(3-(3-amino-6-(2-hydroxyphenyl)pyridazin-4-yl)-3,8-diazabicyclo[3.2.1]octan-8-yl)pyridin-2-yl)oxy)cyclobutoxy)piperidin-1-yl)ethoxy)isoxazol-5-yl)-3-methylbutanoyl)-N-((1S)-1-(4-(2,2-difluorocyclopropyl)phenyl)ethyl)-4-hydroxypyrrolidine-2-carboxamide], where the note is “degradation of BRM, read-out: BRM DC50”, the DC50 was > 30 nM.

For the compound `Cc1ncsc1-c1ccc([C@@H](NC(=O)[C@@H]2C[C@@H](O)CN2C(=O)[C@@H](c2cc(OCCN3CCN(CCOc4cc(N5C6CCC5CN(c5cc(-c7ccccc7O)nnc5N)C6)ccn4)CC3)no2)C(C)C)C(=O)N(C)C2CCC2)cc1` [compound 246, (2S,4R)-1-((2R)-2-(3-(2-(4-(2-((4-(3-(3-amino-6-(2-hydroxyphenyl)pyridazin-4-yl)-3,8-diazabicyclo[3.2.1]octan-8-yl)pyridin-2-yl)oxy)ethyl)piperazin-1-yl)ethoxy)isoxazol-5-yl)-3-methylbutanoyl)-N-((R)-2-(cyclobutyl(methyl)amino)-1-(4-(4-methylthiazol-5-yl)phenyl)-2-oxoethyl)-4-hydroxypyrrolidine-2-carboxamide], the DC50 under setting [1] is < 2.5 nM. For the same compound, the Dmax under setting [3] was > 75%.

Consider `Cc1ncsc1-c1ccc([C@H](C)NC(=O)[C@@H]2C[C@@H](O)CN2C(=O)[C@H](c2cc(OCCC3CCN(C(=O)[C@H]4C[C@H](Oc5cc(N6C7CCC6CN(c6cc(-c8ccccc8O)nnc6N)C7)ccn5)C4)CC3)no2)C(C)C)cn1` [compound 260, (2S,4R)-1-((2S)-2-(3-(2-(1-((1r,3S)-3-((4-(3-(3-amino-6-(2-hydroxyphenyl)pyridazin-4-yl)-3,8-diazabicyclo[3.2.1]octan-8-yl)pyridin-2-yl)oxy)cyclobutane-1-carbonyl)piperidin-4-yl)ethoxy)isoxazol-5-yl)-3-methylbutanoyl)-4-hydroxy-N-((S)-1-(6-(4-methylthiazol-5-yl)pyridin-3-yl)ethyl)pyrrolidine-2-carboxamide], for which the DC50 under setting [1] is > 30 nM.

As to `Cc1ncoc1-c1ccc([C@H](C)NC(=O)[C@@H]2C[C@@H](O)CN2C(=O)[C@H](c2cc(OCCN3CCC(O[C@H]4C[C@H](Oc5cc(N6C7CCC6CN(c6cc(-c8ccccc8O)nnc6N)C7)ccn5)C4)CC3)no2)C(C)C)cn1` [compound 229, (2S,4R)-1-((2S)-2-(3-(2-(4-((1r,3S)-3-((4-(3-(3-amino-6-(2-hydroxyphenyl)pyridazin-4-yl)-3,8-diazabicyclo[3.2.1]octan-8-yl)pyridin-2-yl)oxy)cyclobutoxy)piperidin-1-yl)ethoxy)isoxazol-5-yl)-3-methylbutanoyl)-4-hydroxy-N-((S)-1-(6-(4-methyloxazol-5-yl)pyridin-3-yl)ethyl)pyrrolidine-2-carboxamide], the DC50 under setting [1] is > 30 nM.

For `CC(C)[C@H](C(=O)N1C[C@H](O)C[C@H]1C(=O)N[C@@H](C)c1ccc(-c2ccnn2C)cc1)c1cc(OCCN2CCN(CCOc3cc(N4C5CCC4CN(c4cc(-c6ccccc6O)nnc4N)C5)ccn3)CC2)no1` [compound 263, (2S,4R)-1-((2S)-2-(3-(2-(4-(2-((4-(3-(3-amino-6-(2-hydroxyphenyl)pyridazin-4-yl)-3,8-diazabicyclo[3.2.1]octan-8-yl)pyridin-2-yl)oxy)ethyl)piperazin-1-yl)ethoxy)isoxazol-5-yl)-3-methylbutanoyl)-4-hydroxy-N-((S)-1-(4-(1-methyl-1H-pyrazol-5-yl)phenyl)ethyl)pyrrolidine-2-carboxamide], the DC50 under setting [1] lay within 2.5 to 10 nM. In addition, the Dmax under setting [3] was > 75%.

Regarding `Cc1ncsc1-c1ccc([C@H](C)NC(=O)[C@@H]2C[C@@H](O)CN2C(=O)[C@H](c2cc(OCC[C@@H]3CCN(C[C@H]4C[C@H](Oc5cc(N6C7CCC6CN(c6cc(-c8ccccc8O)nnc6N)C7)ccn5)C4)[C@@H](C)C3)no2)C(C)C)cc1` (racemic) [compound 581, (2S,4R)-1-((2S)-2-(3-(2-((2S,4R)-1-(((1r,3S)-3-((4-(3-(3-amino-6-(2-hydroxyphenyl)pyridazin-4-yl)-3,8-diazabicyclo[3.2.1]octan-8-yl)pyridin-2-yl)oxy)cyclobutyl)methyl)-2-methylpiperidin-4-yl)ethoxy)isoxazol-5-yl)-3-methylbutanoyl)-4-hydroxy-N-((S)-1-(4-(4-methylthiazol-5-yl)phenyl)ethyl)pyrrolidine-2-carboxamide], under “BRM degradation, SW1573 cells, Table 2D, read-out: **Dmax (%) (% degraded)”, the Dmax is > 75%. In addition, for the setting “BRM degradation, SW1573 cells, Table 2D, read-out: *DC50”, the DC50 is < 2.5 nM.

For the compound `Cc1ncsc1-c1ccc([C@H](C)NC(=O)[C@@H]2C[C@@H](O)CN2C(=O)[C@@H](c2cc(OCCN3CCN(CCOc4cc(N5C6CCC5CN(c5cc(-c7ccccc7O)nnc5N)C6)ccn4)C[C@@H]3C)no2)C(C)C)cc1` [compound 141, (2S,4R)-1-((2R)-2-(3-(2-((2S)-4-(2-((4-(3-(3-amino-6-(2-hydroxyphenyl)pyridazin-4-yl)-3,8-diazabicyclo[3.2.1]octan-8-yl)pyridin-2-yl)oxy)ethyl)-2-methylpiperazin-1-yl)ethoxy)isoxazol-5-yl)-3-methylbutanoyl)-4-hydroxy-N-((S)-1-(4-(4-methylthiazol-5-yl)phenyl)ethyl)pyrrolidine-2-carboxamide], the DC50 under setting [1] is < 2.5 nM. The Dmax under setting [2] was > 75%.

Take `Cc1ncsc1-c1ccc([C@H](C)NC(=O)[C@@H]2C[C@@H](O)CN2C(=O)C(c2cc(OCCN3CCN(CCO[C@H]4C[C@H](OCCN5CCOC6(CCN(c7cc(-c8ccccc8O)nnc7N)CC6)C5)C4)CC3)no2)C(C)C)cc1` (stereo partly drawn) [compound 192, (2S,4R)-1-(2-(3-(2-(4-(2-((1r,3r)-3-(2-(9-(3-amino-6-(2-hydroxyphenyl)pyridazin-4-yl)-1-oxa-4,9-diazaspiro[5.5]undecan-4-yl)ethoxy)cyclobutoxy)ethyl)piperazin-1-yl)ethoxy)isoxazol-5-yl)-3-methylbutanoyl)-4-hydroxy-N-((S)-1-(4-(4-methylthiazol-5-yl)phenyl)ethyl)pyrrolidine-2-carboxamide]: the DC50 under setting [1] is < 2.5 nM. Further, under setting [3], the Dmax is > 75%.

These data come from patent US12539292B2, “BRM targeting compounds and associated methods of use” (Arvinas Operations, Inc., priority 2018, dated 2026).
